Assay results as given in patent publication US8158389B2, “Products and methods for in vivo secretion of monatin” (priority 2005, dated 2012).

Test system: E. coli MG1655
Test: Monatin excretion with 2.5 mM sodium decanoate, E. coli MG1655 strains with pUC19, robA or ramA (30, 48 h)
Assay type: cell-based, Escherichia coli
Description: The strains used for the experiment included E. coli MG1655 : : aspC/proA/pProNdeDel together with the robA gene from E. coli cloned into the pUC19 vector. The control strain was E. coli MG1655 : : aspC/proA/pProNde along with the pUC19 vector. The robA gene was amplified from E. coli W3110 using primers 5′[…]3′ (SEQ ID NO. 20) and 5′[…]3′ (SEQ ID NO. 21), which introduced SalI and BamHI sites at the end of the amplified fragment. The PCR fragment was cloned between the SalI and BamHI sites of the vector pUC19 (GenBank/EMBL accession number L09137). For inoculum, the E. coli strains were grown overnight at 37° C. and 250 rpm in Luria-Bertani (“LB”) medium with 100 μg/mL ampicillin and 50 μg/mL kanamycin.
For the experimental treatments, Trp-1+glucose medium, a minimal medium that has been used for increased production of tryptophan in E. coli cells (Zeman et al. Folia Microbiol. 35:200-204, (1990)), was prepared as follows. To 800 mL nanopure water the following reagents were added: 2 g (NH4)2SO4 and 13.6 g KH2PO4. The pH was adjusted to 7.0, the volume was increased to 948 mL, and the medium was autoclaved. Following sterilization, 0.2 g MgSO4.7H2O, 0.01 g CaCl2.2H2O, and 0.5 mg FeSO4.7H2O were ad to the medium in a 1.8 mL volume followed by addition of 0.2 mL of Neidhardt's micronutrient solution. Neidhardt F. C., et al., “Culture medium for Enterobacteria,” J. Bacteriol. 119:736-746, (1974). Neidhardt's medium includes (per liter): 0.18 g (NH4)6(MO7)24-4H2O, 1.24 g H3BO3, 0.36 g CoCl2.6H2O, 0.12 g CuSO4 (anhydrous), 0.8 g MnCl2.4H2O, and 0.14 g ZnSO4.7H2O. A 50% glucose solution was prepared separately and sterile-filtered. Forty mL of glucose solution and 10 mL of 1 M 3-Morpholinopropanesulfonic acid (“MOPS”) buffer were added to the base medium (950 mL) for a 1 L final volume.
Conditions for the treatments included 250 rpm agitation throughout and 37° C. up to induction, then, 30° C. following induction. At 0.30-0.50 OD600 nm, induction of the plasmid genes was initiated. At induction, 1.0 mM IPTG, 0.5% L-arabinose, 0.5 mM pyridoxine hydrochloride, and 0.2 mLs of Balch's vitamins were added. Additions of 10 g/L L-tryptophan, 10 g/L sodium pyruvate, 0.04 mM pyridoxal-5′-phosphate (“PLP”) and 0.2% Tween® 20 (polyoxyethylene 20-sorbitan monolaurate) were made 3 hours following induction. Some treatments included 2.5 mM sodium decanoate addition at 3 hours following induction.
The strains used for the experiment included E. coli MG1655 : : aspC/proA/pProNdeDel together with the ramA gene from Enterobacter aerogenes cloned into the pUC19 vector (GenBank/EMBL accession number L09137). The control strain was E. coli MG1655 : : aspC/proA/pProNde along with the pUC19 vector. The ramA gene was amplified from E. aerogenes ATCC 13048 by using primers, 5′[…]3′ (SEQ ID NO. 22) and 5′[…]3′ (SEQ ID NO. 23), which introduced Sal I and BamH I sites at the end of the amplified fragment. The PCR fragment was cloned between the Sal I and BamH I sites of the vector pUC19 (GenBank/EMBL accession number L09137). For inoculum, the E. coli strains were grown overnight at 37° C. and 250 rpm in Luria-Bertani (“LB”) medium with 100 μg/mL ampicillin and 50 μg/mL kanamycin.
For the experimental treatments, Trp-1+glucose medium, a minimal medium that has been used for increased production of tryptophan in E. coli cells (Zeman et al. Folia Microbiol. 35:200-204, (1990)), was prepared as follows. To 800 mL nanopure water the following reagents were added: 2 g (NH4)2SO4 and 13.6 g KU2PO4. The pH was adjusted to 7.0, the volume was increased to 948 mL, and the medium was autoclaved. Following sterilization, 0.2 g MgSO4.7H2O, 0.01 g CaCl2.2H2O, and 0.5 mg FeSO4.7H2O were to the medium in a 1.8 mL volume followed by addition of 0.2 mL of Neidhardt's micronutrient solution. Neidhardt F. C., et al., “Culture medium for Enterobacteria,” J. Bacteriol. 119:736-746, (1974). […]

[1] = E. coli MG1655::aspC proA pProNdedel pUC19 (control), n = 2
[2] = E. coli MG1655::aspC proA pProNdedel, ramA pUC19, n = 2
[3] = E. coli MG1655::aspC proA pProNdedel, robA pUC19, n = 2

CCCCCCCCCC(=O)[O-].[Na+] [sodium decanoate]
Monatin/dcw, 30 hours [1]: 4.66 mg/g
Monatin/dcw, 48 hours [1]: 4.31 mg/g
Monatin/dcw, 30 hours [2]: 3.69 mg/g
Monatin/dcw, 48 hours [2]: 13.90 mg/g
Monatin/dcw, 30 hours [3]: 6.91 mg/g
Monatin/dcw, 48 hours [3]: 25.62 mg/g
